Reference: US20220056019A1, “FARNESOID X RECEPTOR AGONISTS AND USES THEREOF” (Metacrine, Inc., priority 2018, published 2022)

Biological target: T1, hFXR (Homo sapiens, UniProt Q96RI1)
T1 construct: expressed in transfected cells; host or cells: CV-1 cells
T1 sequence (Q96RI1 1-486): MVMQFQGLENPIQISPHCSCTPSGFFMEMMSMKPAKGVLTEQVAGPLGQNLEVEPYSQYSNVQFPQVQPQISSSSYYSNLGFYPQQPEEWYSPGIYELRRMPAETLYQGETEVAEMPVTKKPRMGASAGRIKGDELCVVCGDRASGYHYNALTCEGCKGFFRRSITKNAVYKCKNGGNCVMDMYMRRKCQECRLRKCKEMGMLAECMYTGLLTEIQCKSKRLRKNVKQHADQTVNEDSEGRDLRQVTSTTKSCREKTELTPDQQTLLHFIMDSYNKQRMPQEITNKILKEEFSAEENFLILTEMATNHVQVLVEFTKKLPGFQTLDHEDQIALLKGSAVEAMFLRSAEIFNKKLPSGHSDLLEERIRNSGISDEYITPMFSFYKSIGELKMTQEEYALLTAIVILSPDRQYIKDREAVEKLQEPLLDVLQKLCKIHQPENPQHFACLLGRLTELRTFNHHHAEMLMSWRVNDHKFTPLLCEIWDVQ
T1 sequence (P19793 1-462 partner): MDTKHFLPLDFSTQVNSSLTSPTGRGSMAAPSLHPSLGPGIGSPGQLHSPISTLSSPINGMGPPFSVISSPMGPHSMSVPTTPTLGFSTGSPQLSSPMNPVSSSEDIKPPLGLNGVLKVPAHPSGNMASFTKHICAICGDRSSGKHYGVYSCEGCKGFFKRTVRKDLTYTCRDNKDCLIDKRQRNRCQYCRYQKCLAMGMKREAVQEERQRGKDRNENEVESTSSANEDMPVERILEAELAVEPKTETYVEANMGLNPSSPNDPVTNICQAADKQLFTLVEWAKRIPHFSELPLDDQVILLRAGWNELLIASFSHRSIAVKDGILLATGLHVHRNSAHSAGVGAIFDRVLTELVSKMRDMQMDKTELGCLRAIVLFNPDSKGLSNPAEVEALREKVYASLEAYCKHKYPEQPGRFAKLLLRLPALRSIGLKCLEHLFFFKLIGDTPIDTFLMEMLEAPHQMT
Assay: In Vitro FXR Assay (TK): TK-ECRE-luc reporter in transfected CV-1 cells
Assay type: cell-based
Details: 18 hrs incubation, luminescence
Procedure, shortened: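 CV-1 cells transiently cotransfected with hFXR, hRXR, TK-ECRE-luc reporter and pCMX-YFP plasmids in charcoal-stripped serum medium. Serially diluted compounds added for 18 h at 37° C., then cells lysed and luciferase luminescence measured.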

EC50, ≤ 50 nM:
COc1ccc([C@H]2CC[C@H](CN(c3cc(-c4cnc(N(C)C)nc4)ccn3)C(=O)[C@H]3CC[C@H](OC(=O)N4CC(O)C4)CC3)CC2)cc1C [Compound 3.01, trans-4-((4-(2-(Dimethylamino)pyrimidin-5-yl)pyridin-2-yl)((trans-4-(4-methoxy-3-methylphenyl)cyclohexyl)methyl)carbamoyl) cyclohexyl 3-hydroxyazetidine-1-carboxylate]
COc1ccc(C23CCC(CN(c4cc(-c5cnn(C(C)C)c5)ccn4)C(=O)[C@H]4CC[C@H](OC(=O)N5CC(O)C5)CC4)(CC2)CC3)cc1C [Compound 4, 4-((4-(1-Isopropyl-1H-pyrazol-4-yl)pyridin-2-yl)((4-(4-methoxy-3-methylphenyl)bicyclo[2.2.2]octan-1-yl)methyl)carbamoyl)cyclohexyl 3-hydroxyazetidine-trans-1-carboxylate]
COc1ccc(C23CCC(CN(c4cc(-c5cnc(C6CC6)s5)ccn4)C(=O)[C@H]4CC[C@H](OC(=O)N5CC(O)C5)CC4)(CC2)CC3)cc1C [Compound 4.01, 4-((4-(2-Cyclopropylthiazol-5-yl)pyridin-2-yl)((4-(4-methoxy-3-methylphenyl)bicyclo[2.2.2]octan-1-yl)methyl)carbamoyl) cyclohexyl 3-hydroxyazetidine-trans-1-carboxylate]
COc1ccc(C23CCC(CN(c4cc(-c5coc(C6CC6)n5)ccn4)C(=O)[C@H]4CC[C@H](OC(=O)N5CC(O)C5)CC4)(CC2)CC3)cc1C [Compound 4.02, 4-((4-(2-Cyclopropyloxazol-4-yl)pyridin-2-yl)((4-(4-methoxy-3-methylphenyl)bicyclo[2.2.2]octan-1-yl)methyl)carbamoyl) cyclohexyl 3-hydroxyazetidine-trans-1-carboxylate]
CNC(=O)O[C@H]1CC[C@H](C(=O)N(CC23CCC(c4ccc(OC)c(C)c4)(CC2)CC3)c2cc(-c3cnn(C(C)C)c3)ccn2)CC1 [Compound 4.03, 4-((4-(1-Isopropyl-1H-pyrazol-4-yl)pyridin-2-yl)((4-(4-methoxy-3-methylphenyl)bicyclo [2.2.2]octan-1-yl)methyl)carbamoyl)cyclohexyl trans-methylcarbamate]
COc1ccc(C23CCC(CN(c4cc(-c5cnn(C(C)C)c5)ccn4)C(=O)[C@H]4CC[C@H](OC(=O)NC(C)C)CC4)(CC2)CC3)cc1C [Compound 4.04, 4-((4-(1-Isopropyl-1H-pyrazol-4-yl)pyridin-2-yl)((4-(4-methoxy-3-methylphenyl)bicyclo [2.2.2]octan-1-yl)methyl)carbamoyl)cyclohexyl trans-isopropylcarbamate]
COc1ccc(C23CCC(CN(c4cc(-c5cnn(C(C)C)c5)ccn4)C(=O)[C@H]4CC[C@H](OC(=O)NCCO)CC4)(CC2)CC3)cc1C [Compound 4.05, 4-((4-(1-Isopropyl-1H-pyrazol-4-yl)pyridin-2-yl)((4-(4-methoxy-3-methylphenyl)bicyclo [2.2.2]octan-1-yl)methyl)carbamoyl)cyclohexyl (2-hydroxyethyl)trans-carbamate]
COc1ccc(C23CCC(CN(c4cc(-c5cnn(C(C)C)c5)ccn4)C(=O)[C@H]4CC[C@H](OC(=O)NCC(C)(C)O)CC4)(CC2)CC3)cc1C [Compound 4.06, 4-((4-(1-Isopropyl-1H-pyrazol-4-yl)pyridin-2-yl)((4-(4-methoxy-3-methylphenyl)bicyclo [2.2.2]octan-1-yl)methyl)carbamoyl)cyclohexyl (2-hydroxy-2-methylpropyl)trans-carbamate]
COc1ccc(C23CCC(CN(c4cc(-c5cnn(C(C)C)c5)ccn4)C(=O)[C@H]4CC[C@H](OC(=O)NCCCO)CC4)(CC2)CC3)cc1C [Compound 4.07, 4-((4-(1-Isopropyl-1H-pyrazol-4-yl)pyridin-2-yl)((4-(4-methoxy-3-methylphenyl)bicyclo [2.2.2]octan-1-yl)methyl)carbamoyl)cyclohexyl (3-hydroxypropyl)trans-carbamate]
COc1ccc(C23CCC(CN(c4cc(-c5cnn(C(C)C)c5)ccn4)C(=O)[C@H]4CC[C@H](OC(=O)NCCC(C)(C)O)CC4)(CC2)CC3)cc1C [Compound 4.08, 4-((4-(1-Isopropyl-1H-pyrazol-4-yl)pyridin-2-yl)((4-(4-methoxy-3-methylphenyl)bicyclo [2.2.2]octan-1-yl)methyl)carbamoyl)cyclohexyl (3-hydroxy-3-methylbutyl)trans-carbamate]
COc1ccc(C23CCC(CN(c4cc(-c5cnn(C(C)C)c5)ccn4)C(=O)[C@H]4CC[C@H](OC(=O)N5CC(CO)C5)CC4)(CC2)CC3)cc1C [Compound 4.09, 4-((4-(1-Isopropyl-1H-pyrazol-4-yl)pyridin-2-yl)((4-(4-methoxy-3-methylphenyl)bicyclo [2.2.2]octan-1-yl)methyl)carbamoyl)cyclohexyl 3-(hydroxymethyl) azetidine-trans-1-carboxylate]
COc1ccc(C23CCC(CN(c4cc(-c5cnn(C(C)C)c5)ccn4)C(=O)[C@H]4CC[C@H](OC(=O)N5CC(OCCO)C5)CC4)(CC2)CC3)cc1C [Compound 4.10, 4-((4-(1-Isopropyl-1H-pyrazol-4-yl)pyridin-2-yl)((4-(4-methoxy-3-methylphenyl)bicyclo [2.2.2]octan-1-yl)methyl)carbamoyl)cyclohexyl 3-(2-hydroxyethoxy) azetidine- trans-1-carboxylate]
COc1ccc(C23CCC(CN(c4cc(-c5cnn(C(C)C)c5)ccn4)C(=O)[C@H]4CC[C@H](OC(=O)N5CC(S(C)(=O)=O)C5)CC4)(CC2)CC3)cc1C [Compound 4.11, 4-((4-(1-Isopropyl-1H-pyrazol-4-yl)pyridin-2-yl)((4-(4-methoxy-3-methylphenyl)bicyclo [2.2.2]octan-1-yl)methyl)carbamoyl)cyclohexyl 3-(methylsulfonyl) azetidine-trans-1-carboxylate]
COc1ccc(C23CCC(CN(c4cc(-c5cnn(C(C)C)c5)ccn4)C(=O)[C@H]4CC[C@H](OC(=O)N5CC(N(C)C)C5)CC4)(CC2)CC3)cc1C [Compound 4.12, 4-((4-(1-Isopropyl-1H-pyrazol-4-yl)pyridin-2-yl)((4-(4-methoxy-3-methylphenyl)bicyclo [2.2.2]octan-1-yl)methyl)carbamoyl)cyclohexyl 3-(dimethylamino) azetidine-trans-1-carboxylate]
COc1ccc(C23CCC(CN(c4cc(-c5cnn(C(C)C)c5)ccn4)C(=O)[C@H]4CC[C@H](OC(=O)NC5COC5)CC4)(CC2)CC3)cc1C [Compound 4.13, 4-((4-(1-Isopropyl-1H-pyrazol-4-yl)pyridin-2-yl)((4-(4-methoxy-3-methylphenyl)bicyclo [2.2.2]octan-1-yl)methyl)carbamoyl)cyclohexyl trans-oxetan-3-ylcarbamate]
COc1ccc(C23CCC(CN(c4cc(-c5cnn(C(C)C)c5)ccn4)C(=O)[C@H]4CC[C@H](OC(=O)N5CCOCC5)CC4)(CC2)CC3)cc1C [Compound 4.14, 4-((4-(1-Isopropyl-1H-pyrazol-4-yl)pyridin-2-yl)((4-(4-methoxy-3-methylphenyl)bicyclo [2.2.2]octan-1-yl)methyl)carbamoyl)cyclohexyl morpholine-trans-4-carboxylate]
COc1ccc(C23CCC(CN(c4cc(-c5cnn(C(C)C)c5)ccn4)C(=O)[C@H]4CC[C@H](OC(=O)N5CCN(C)CC5)CC4)(CC2)CC3)cc1C [Compound 4.15, 4-((4-(1-Isopropyl-1H-pyrazol-4-yl)pyridin-2-yl)((4-(4-methoxy-3-methylphenyl)bicyclo [2.2.2]octan-1-yl)methyl)carbamoyl)cyclohexyl 4-methylpiperazine-trans-1-carboxylate]
COc1ccc(C23CCC(CN(c4cc(-c5cnn(C(C)C)c5)ccn4)C(=O)[C@H]4CC[C@H](OC(=O)N5CC(O)C5)CC4)(CC2)CC3)cc1Cl [Compound 4.16, 4-(((4-(3-Chloro-4-methoxyphenyl)bicyclo [2.2.2]octan-1-yl)methyl) (4-(1-isopropyl-1H-pyrazol-4-yl)pyridin-2-yl)carbamoyl)cyclohexyl hydroxyazetidine-1-carboxylate]
